experiment: Inhibition of hedgehog receptor mediated Ptch1 transcription; settings: not given; call rule not given here

SMILES | EC50 [µM]
CC1=C2C[C@H]3[C@@H](CC=C4C[C@@H](O)CC[C@@]43C)[C@@H]2CC[C@]12O[C@@H]1C[C@H](C)CN[C@H]1[C@H]2C [CYCLOPAMINE] | 0.3

experiment: Agonist activity at hedgehog receptor; assay type: functional; settings: not given

SMILES | EC50 [µM]
CC(C)[C@@H](O)CC[C@@H](C)[C@H]1CC[C@H]2[C@@H]3CC=C4C[C@@H](O)CC[C@]4(C)[C@H]3CC[C@]12C | 3
C[C@H](CCCC(C)(C)O)[C@H]1CC[C@H]2[C@@H]3CC=C4C[C@@H](O)CC[C@]4(C)[C@H]3CC[C@]12C | 1
CC(C)CCC[C@](C)(O)[C@H]1CC[C@H]2[C@@H]3CC=C4C[C@@H](O)CC[C@]4(C)[C@H]3CC[C@@]21C | 0.1
CC(C)CC[C@H](O)[C@@H](C)[C@H]1CC[C@H]2[C@@H]3CC=C4C[C@@H](O)CC[C@]4(C)[C@H]3CC[C@]12C | 0.2
c1ccc2c(Oc3nc(Nc4ccc(N5CCOCC5)cc4)c4ncn(C5CCCCC5)c4n3)cccc2c1 [PURMORPHAMINE] | 1
CN[C@H]1CC[C@H](N(Cc2cccc(-c3ccncc3)c2)C(=O)c2sc3ccccc3c2Cl)CC1 | 3

experiment: Antagonist activity at hedgehog receptor; assay type: functional; settings: not given

SMILES | IC50 [µM]
C[C@@]12C[C@H]3OC(=O)[C@@H]1CO[C@]14O[C@]5([C@H]2C1=O)[C@@](O)(CC[C@H]1[C@H]4C[C@H]2O[C@]24CC=CC(=O)[C@]14C)C(=O)O[C@@]35C [PHYSALIN F] | 0.66
CC1=C2C[C@H]3[C@@H](CCC4=CC(=O)CC[C@@]43C)[C@@H]2CC[C@@]2(C1)O[C@@H]1C[C@H](C)CNC1[C@H]2C (single isomer, unassigned) | 0.2
CC1=C2C[C@H]3[C@@H](CC[C@@H]4CNC(=O)CC[C@@]43C)[C@@H]2CC[C@@]2(C1)O[C@@H]1C[C@H](C)CN[C@@H]1[C@H]2C | 0.03
CC1=C2C[C@H]3[C@@H](CC[C@@H]4Cc5n[nH]cc5C[C@@]43C)[C@@H]2CC[C@@]2(C1)O[C@@H]1C[C@H](C)CN[C@@H]1[C@H]2C | 0.01
c1cc(-c2sc(-c3ccncc3)c(-c3ccncc3)c2-c2ccncc2)ccn1 | 5

Other lines, results leading:

IC50 [µM] | SMILES
0.03 | CCOc1cc(C(=O)Nc2ccc(Cl)c(-c3nc4ccccc4[nH]3)c2)cc(OCC)c1OCC
1.5 | COCCOC(=O)C1=C(C)NC2=C(C(=O)CC(c3ccccc3OC)C2)C1c1cccc(O)c1 (stereo not given)
3.1 | O=C(C[C@@H]1C/C=C/CCC(=O)O[C@H](c2ccccc2)CNC1=O)NCc1ccc(Cl)cc1 [ROBOTNIKININ]
0.007 | CC1=C2C[C@H]3[C@@H](CC[C@@H]4C[C@H](NS(C)(=O)=O)CC[C@@]43C)[C@@H]2CC[C@@]2(C1)O[C@@H]1C[C@H](C)CN[C@@H]1[C@H]2C
0.8 | CCC(C)n1ncn(-c2ccc(N3CCN(c4ccc(OCC5COC(Cn6cncn6)(c6ccc(Cl)cc6Cl)O5)cc4)CC3)cc2)c1=O (stereo not given) [ITRACONAZOLE]
0.02 | CC1=C2C[C@H]3[C@@H](CC=C4CC(=O)CC[C@@]43C)[C@@H]2CC[C@]12O[C@@H]1C[C@H](C)CN(CCNC(=O)CCCCCNC(=O)CCc3ccccc3)[C@H]1[C@H]2C
5 | CN(C)c1ccccc1CN1CCCN(Cc2ccccc2N(C)C)C1c1ccncc1
0.013 | CS(=O)(=O)c1ccc(C(=O)Nc2ccc(Cl)c(-c3ccccn3)c2)c(Cl)c1 [VISMODEGIB]
0.02 | CCCN[C@H]1CC[C@H](N(Cc2cccc(-c3ccncc3)c2)C(=O)c2sc3ccccc3c2Cl)CC1

experiment: Inhibition of hedgehog receptor mediated Gli transcription; settings: not given

SMILES | EC50
Cc1c([C@H](C)[C@@H]2NC[C@@H](C)C[C@H]2O)ccc2c1C[C@H]1[C@H]2CC=C2C[C@@H](O)CC[C@@]21C [VERATRAMINE] | Not Active

same assay, conditions: read-out: EC50

SMILES | EC50 [µM]
CC1=C2C(=O)[C@H]3[C@@H](CC=C4C[C@@H](O)CC[C@@]43C)[C@@H]2CC[C@]12O[C@@H]1C[C@H](C)CN[C@H]1[C@H]2C [JERVINE] | 0.5
CC1=C2C[C@H]3[C@@H](CC=C4C[C@@H](O[C@@H]5O[C@H](CO)[C@@H](O)[C@H](O)[C@H]5O)CC[C@@]43C)[C@@H]2CC[C@]12O[C@@H]1C[C@H](C)CN[C@H]1[C@H]2C [CYCLOPOSINE] | > 0.7
CC1=C2C[C@H]3[C@@H](CC=C4C[C@@H](O)CC[C@@]43C)[C@@H]2CC[C@]12O[C@@H]1C[C@H](C)CN[C@H]1[C@H]2C [CYCLOPAMINE] | 0.3

Source: ChEMBL document CHEMBL1240509, “Modulators of the hedgehog signaling pathway” (Bioorg Med Chem, 2010)
